According to publication PMC6042686 (PLoS Biology, 2018):
Where “and” joins values, the source holds several entries; their conditions need not be identical. Equal entries are not always repeated. Where two headings read alike, the source gives them in different places.

Assays:
tree shrew TRPV1 (tsV1) = tree shrew TRPV1 (tsV1) (Tupaia chinensis, UniProt L8Y7X1); assay: cell-based; settings: for EC50: EC50 for activation of tsV1
mouse TRPV1 (mV1) = target: T1, mouse TRPV1 (mV1) (Mus musculus, UniProt Q704Y3); assay: cell-based; settings: EC50 for activation of mV1
T1 construct: expressed in transfected cells; host or cells: HEK293T

mV1_T551V = target: T2, mV1_T551V (Mus musculus, UniProt Q704Y3, T551V); assay: cell-based
T2 construct: expressed in transfected cells; host or cells: HEK293T

tsV1_M579T = tsV1_M579T (Tupaia chinensis, UniProt L8Y7X1, M598T); assay: cell-based; type: cell-based, tree shrew
tree shrew = settings: in vivo
BALB/c mice [1] = settings: in vivo
tree shrews = type: in vivo, tree shrew (Tupaia belangeri chinensis);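 as to Normalized food-intake, tree shrew (individual replicate): normalized to average intake of feed without capsaicin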
mV1_T551M [2] = target: T3, mV1_T551M (Mus musculus, UniProt Q704Y3, T551M); assay: cell-based
T3 construct: expressed in transfected cells; host or cells: HEK293T (patch clamp); HEK293 (calcium imaging)

tree shrew DRG neurons = type: cell-based
BALB/c mice [3] = settings: in vivo; for Change of food intake when the compound is added to the food: mouse
mouse paw tissue = settings: in vivo
polar bear TRPV1 (pV1) = polar bear TRPV1 (pV1) (Ursus maritimus, UniProt A0A384CG69); assay: cell-based
tsV1_M579A = tsV1_M579A (Tupaia chinensis, UniProt L8Y7X1, M598A); assay: cell-based; set-up: species or system tree shrew
tsV1_M579S = tsV1_M579S (Tupaia chinensis, UniProt L8Y7X1, M598S); assay: cell-based; set-up: species or system tree shrew
mV1_T551M [4] = target: T3, mV1_T551M; type: cell-based
tsV1_M579V = tsV1_M579V (Tupaia chinensis, UniProt L8Y7X1, M598V); assay: cell-based; set-up: species or system tree shrew
tsV1_M579G = tsV1_M579G (Tupaia chinensis, UniProt L8Y7X1, M598G); assay: cell-based; set-up: species or system tree shrew
human TRPV1 (hV1) = target: T4, human TRPV1 (hV1) (Homo sapiens, UniProt Q8NER1); assay: cell-based
T4 construct: expressed in transfected cells; host or cells: HEK293T
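For Normalized food-intake, mouse (individual replicate) in this document: normalized to average intake of feed without capsaicin.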

T1 sequence (Q704Y3 whole entry): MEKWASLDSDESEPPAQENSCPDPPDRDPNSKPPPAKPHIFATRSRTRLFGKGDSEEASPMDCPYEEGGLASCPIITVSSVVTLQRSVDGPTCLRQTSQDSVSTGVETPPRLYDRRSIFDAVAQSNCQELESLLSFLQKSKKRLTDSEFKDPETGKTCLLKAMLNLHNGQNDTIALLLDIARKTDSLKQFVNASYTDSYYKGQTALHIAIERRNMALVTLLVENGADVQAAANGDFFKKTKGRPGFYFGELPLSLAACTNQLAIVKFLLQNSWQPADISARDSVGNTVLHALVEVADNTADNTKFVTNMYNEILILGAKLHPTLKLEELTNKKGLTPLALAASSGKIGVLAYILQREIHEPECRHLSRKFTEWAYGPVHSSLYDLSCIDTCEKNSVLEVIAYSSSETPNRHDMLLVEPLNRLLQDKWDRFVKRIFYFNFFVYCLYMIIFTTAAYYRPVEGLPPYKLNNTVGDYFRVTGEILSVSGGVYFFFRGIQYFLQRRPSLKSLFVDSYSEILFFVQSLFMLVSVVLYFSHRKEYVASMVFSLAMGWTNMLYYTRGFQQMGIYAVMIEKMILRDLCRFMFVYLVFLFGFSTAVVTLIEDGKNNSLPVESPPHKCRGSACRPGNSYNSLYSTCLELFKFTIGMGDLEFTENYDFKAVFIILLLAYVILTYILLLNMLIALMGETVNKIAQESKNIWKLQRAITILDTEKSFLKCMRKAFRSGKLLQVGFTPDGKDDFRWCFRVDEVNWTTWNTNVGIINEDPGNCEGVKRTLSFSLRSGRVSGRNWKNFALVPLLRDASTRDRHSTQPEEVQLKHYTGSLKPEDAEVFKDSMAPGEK
Chain of tsV1_M579T (L8Y7X1 1-828 M598T): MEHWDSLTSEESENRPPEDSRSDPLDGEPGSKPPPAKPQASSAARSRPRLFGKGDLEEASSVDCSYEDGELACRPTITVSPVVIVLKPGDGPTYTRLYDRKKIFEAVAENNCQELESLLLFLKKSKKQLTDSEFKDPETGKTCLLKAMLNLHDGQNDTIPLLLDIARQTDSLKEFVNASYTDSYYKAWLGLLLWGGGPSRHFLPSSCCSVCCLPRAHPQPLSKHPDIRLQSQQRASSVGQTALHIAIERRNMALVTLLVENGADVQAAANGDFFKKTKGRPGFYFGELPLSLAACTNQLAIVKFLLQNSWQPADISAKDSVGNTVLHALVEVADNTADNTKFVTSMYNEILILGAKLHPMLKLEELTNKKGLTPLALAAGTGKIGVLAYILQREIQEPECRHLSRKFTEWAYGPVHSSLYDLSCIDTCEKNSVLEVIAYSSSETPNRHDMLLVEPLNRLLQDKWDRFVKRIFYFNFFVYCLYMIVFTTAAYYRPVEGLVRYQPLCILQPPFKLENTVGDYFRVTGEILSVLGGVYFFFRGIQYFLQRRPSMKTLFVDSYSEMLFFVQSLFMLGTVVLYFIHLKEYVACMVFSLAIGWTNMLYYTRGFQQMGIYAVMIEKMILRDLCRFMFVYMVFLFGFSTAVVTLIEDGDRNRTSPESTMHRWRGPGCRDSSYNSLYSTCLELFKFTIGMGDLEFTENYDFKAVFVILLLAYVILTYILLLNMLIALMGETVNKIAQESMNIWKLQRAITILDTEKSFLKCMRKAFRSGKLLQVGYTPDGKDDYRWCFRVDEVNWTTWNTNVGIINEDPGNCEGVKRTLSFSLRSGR
Chain of tree shrew TRPV1 (tsV1) (L8Y7X1 1-828): as the sequence (L8Y7X1 1-828 M598T) above, with T598M counted along it
T3 sequence (Q704Y3 whole entry T551M): as the sequence (Q704Y3 whole entry) above, with T551M counted along it
Chain of tsV1_M579S (L8Y7X1 1-828 M598S): as the sequence (L8Y7X1 1-828 M598T) above, with T598S counted along it
Chain of polar bear TRPV1 (pV1) (A0A384CG69 1-841): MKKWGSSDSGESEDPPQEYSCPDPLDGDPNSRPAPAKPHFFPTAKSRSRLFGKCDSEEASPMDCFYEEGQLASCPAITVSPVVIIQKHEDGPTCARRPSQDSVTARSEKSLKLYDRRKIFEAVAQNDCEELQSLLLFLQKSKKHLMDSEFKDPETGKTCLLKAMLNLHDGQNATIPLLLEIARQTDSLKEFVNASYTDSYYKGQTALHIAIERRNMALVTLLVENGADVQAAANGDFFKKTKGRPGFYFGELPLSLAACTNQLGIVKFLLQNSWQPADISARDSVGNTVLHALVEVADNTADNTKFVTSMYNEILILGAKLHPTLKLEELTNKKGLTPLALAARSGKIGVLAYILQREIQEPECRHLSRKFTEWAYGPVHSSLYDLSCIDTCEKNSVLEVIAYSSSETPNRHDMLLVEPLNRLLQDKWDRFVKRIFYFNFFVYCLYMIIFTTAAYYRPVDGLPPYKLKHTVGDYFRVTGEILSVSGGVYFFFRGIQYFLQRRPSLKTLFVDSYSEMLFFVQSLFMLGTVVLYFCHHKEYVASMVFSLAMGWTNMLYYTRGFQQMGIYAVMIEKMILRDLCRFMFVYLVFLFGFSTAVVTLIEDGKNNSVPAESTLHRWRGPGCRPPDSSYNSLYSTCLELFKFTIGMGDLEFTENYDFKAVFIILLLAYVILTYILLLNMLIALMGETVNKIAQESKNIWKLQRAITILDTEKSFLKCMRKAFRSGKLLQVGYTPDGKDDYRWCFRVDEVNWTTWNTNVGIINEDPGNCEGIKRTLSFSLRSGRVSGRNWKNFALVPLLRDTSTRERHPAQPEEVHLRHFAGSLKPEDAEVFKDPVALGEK
Chain of tsV1_M579A (L8Y7X1 1-828 M598A): as the sequence (L8Y7X1 1-828 M598T) above, with T598A counted along it
Chain of tsV1_M579G (L8Y7X1 1-828 M598G): as the sequence (L8Y7X1 1-828 M598T) above, with T598G counted along it
T4 sequence (Q8NER1 whole entry): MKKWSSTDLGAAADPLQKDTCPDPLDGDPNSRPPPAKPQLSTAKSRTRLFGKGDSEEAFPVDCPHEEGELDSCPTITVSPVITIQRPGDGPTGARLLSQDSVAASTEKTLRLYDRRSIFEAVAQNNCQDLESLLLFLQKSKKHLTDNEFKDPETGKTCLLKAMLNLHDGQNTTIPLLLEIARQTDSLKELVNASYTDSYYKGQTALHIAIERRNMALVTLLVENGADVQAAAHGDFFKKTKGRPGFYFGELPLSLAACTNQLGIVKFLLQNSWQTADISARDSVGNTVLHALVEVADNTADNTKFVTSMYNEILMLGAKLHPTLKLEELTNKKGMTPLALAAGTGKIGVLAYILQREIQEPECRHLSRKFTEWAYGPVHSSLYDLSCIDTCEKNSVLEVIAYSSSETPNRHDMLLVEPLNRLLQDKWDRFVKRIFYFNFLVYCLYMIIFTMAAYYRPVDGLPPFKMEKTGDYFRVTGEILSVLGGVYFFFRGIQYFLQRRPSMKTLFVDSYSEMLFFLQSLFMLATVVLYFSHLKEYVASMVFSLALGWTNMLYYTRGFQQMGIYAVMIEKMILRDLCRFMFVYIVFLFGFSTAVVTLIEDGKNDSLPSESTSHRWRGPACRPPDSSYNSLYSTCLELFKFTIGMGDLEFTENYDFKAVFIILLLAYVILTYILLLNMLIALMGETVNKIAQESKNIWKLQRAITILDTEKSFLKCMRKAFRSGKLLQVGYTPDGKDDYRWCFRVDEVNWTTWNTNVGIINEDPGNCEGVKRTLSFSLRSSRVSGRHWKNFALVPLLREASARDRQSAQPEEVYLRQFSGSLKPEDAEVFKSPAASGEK
T2 sequence (Q704Y3 whole entry T551V): as the sequence (Q704Y3 whole entry) above, with T551V counted along it
Chain of tsV1_M579V (L8Y7X1 1-828 M598V): as the sequence (L8Y7X1 1-828 M598T) above, with T598V counted along it

SMILES: COc1cc(CNC(=O)CCCC/C=C/C(C)C)ccc1O [capsaicin]
- EC50 (tree shrew TRPV1 (tsV1)): 5.2 ± 0.13 µM
- EC50 (mouse TRPV1 (mV1)): 0.2 µM and ~0.2 µM
- EC50 (mV1_T551V): ~1.5 µM
- Change in the EC50 on mutating the homologous site (mV1_T551M or tsV1_M579T) (tsV1_M579T): approximately 10 fold
- EC50 of tsV1_M579T lower than EC50 of wild-type tsV1 (tsV1_M579T): approximately 50 fold
- Capsaicin-induced acute pain behavior (paw licking) (tree shrew): absent
- paw licking after capsaicin (S1B Fig), AVE_tree shrew (tree shrew): 1.836 and 1.5525
- paw licking after capsaicin (S1B Fig), tree shrew, single animals (tree shrew): 3.34 and 1.67 and 2.84 and 0.95 and 1.47 and 1.89 and 1.46 and 0.74 and 2 and 2.07 and 2.32 and 2.01 and 1.28
- paw licking after capsaicin (S1B Fig), mouse, single animals (BALB/c mice [1]): 74.03 and 80.09 and 18.24 and 91.1 and 11.82 and 100.82 and 8.03 and 45.87 and 22.39 and 126.21
- paw licking after capsaicin (S1B Fig), AVE_mouse (BALB/c mice [1]; mouse): 55.056 and 60.664
- Normalized food-intake, AVE_tree shrew (tree shrews; 24 hours, n = 3): 1.087 and 1.119 and 1.28 and 1.255
- Change of food intake when the compound is added to the food (tree shrews; in vivo): no such change
- Normalized food-intake, tree shrew (individual replicate) (tree shrews; in vivo): 1.004 and 1.211 and 1.046 and 1.034 and 1.223 and 1.101 and 1.209 and 1.372 and 1.259 and 1.119 and 1.381 and 1.265
- EC50 (mV1_T551M [2]): ~2.1 µM
- Calcium response of DRG neurons (tree shrew DRG neurons): much weaker response
- Normalized food-intake, mouse (individual replicate) (BALB/c mice [3]): 0.359 and 0.496 and 0.524 and 0.168 and 0.264 and 0.288 and 0.063 and 0.143 and 0.169 and 0.008 and 0.009 and 0.007
- Change of food intake when the compound is added to the food (BALB/c mice [3]): significantly reduced in a concentration-dependent manner
- Paw tissue histology (H&E) after hind paw injection (mouse paw tissue): significantly increased

SMILES: CCCCC[C@H](O)CC(=O)CCc1ccc(O)c(OC)c1 [gingerol]
- Change in the EC50 on mutating the homologous site (mV1_T551M or tsV1_M579T) (tsV1_M579T): approximately 6 fold

SMILES: CCCCC/C=C/C(=O)CCc1ccc(O)c(OC)c1 [shogaol]
- Change in the EC50 on mutating the homologous site (mV1_T551M or tsV1_M579T) (tsV1_M579T; hek293t cells): approximately 10 fold

SMILES: O=C(/C=C/C=C/c1ccc2c(c1)OCO2)N1CCCCC1 [piperine]
- Change in the EC50 on mutating the homologous site (mV1_T551M or tsV1_M579T) (tsV1_M579T; hek293t cells): approximately 2 fold

SMILES: CCCCC/C=C/C=C/C(=O)NCCc1ccc(O)c(OC)c1 [Cap2]
- EC50 (polar bear TRPV1 (pV1)): 0.87 ± 0.04 µM
- EC50 (tree shrew TRPV1 (tsV1)): 1900 µM and ~1900 µM
- EC50 of tsV1 larger than the EC50 of mV1 (tree shrew TRPV1 (tsV1); hek293t cells): approximately 2,500 fold
- EC50 (tsV1_M579A): 1070 µM
- EC50 (mouse TRPV1 (mV1)): 0.74 ± 0.05 µM
- EC50 (tsV1_M579T): 2.34 ± 0.26 µM
- Shift of concentration-response curve relative to wild-type tsV1 (tsV1_M579T): large shifts to the left
- Change in the EC50 on mutating the homologous site (mV1_T551M or tsV1_M579T) (tsV1_M579T; hek293t cells): approximately 1,000 fold
- EC50 of tsV1_M579T lower than EC50 of wild-type tsV1 (tsV1_M579T; hek293t cells): approximately 1,000 fold
- EC50 (tsV1_M579S): 5.46 µM
- Shift of concentration-response curve relative to wild-type tsV1 (tsV1_M579S): large shifts to the left
- Calcium signal in mV1_T551M-expressing HEK293 cells (mV1_T551M [4]): largely diminished calcium signal
- Change of food intake when the compound is added to the food (tree shrews; in vivo): slight increase
- Normalized food-intake, AVE_tree shrew (tree shrews; in vivo): 1.13 and 1.269 and 1.38 and 1.28
- EC50 (mV1_T551M [2]): 151.4 ± 0.12 µM
- EC50 (tsV1_M579V): 830 µM
- EC50 (tsV1_M579G): 920 µM
- EC50 (human TRPV1 (hV1)): 5.73 ± 0.05 µM
- Change of food intake when the compound is added to the food (BALB/c mice [3]): significantly decreased
